Test results: ChEMBL document CHEMBL2346648, “A series of thiazole derivatives bearing thiazolidin-4-one as non-competitive ADAMTS-5 (aggrecanase-2) inhibitors” (Bioorg Med Chem Lett, 2013)

Tests used:
[1] = biological target: T1, A disintegrin and metalloproteinase with thrombospondin motifs 5 (Bos taurus) (UniProt Q9TT92); assay: Ex vivo inhibition of ADAMTS-5-mediated aggrecan degradation in IL-1-stimulated bovine cartilage explant at 30 uM
T1 sequence (whole entry): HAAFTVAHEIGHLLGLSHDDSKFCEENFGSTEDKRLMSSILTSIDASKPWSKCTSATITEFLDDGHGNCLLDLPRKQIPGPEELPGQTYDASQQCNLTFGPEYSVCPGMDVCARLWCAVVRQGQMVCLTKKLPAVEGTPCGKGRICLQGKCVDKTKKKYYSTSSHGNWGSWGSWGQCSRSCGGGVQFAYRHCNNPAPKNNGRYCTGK

[2] = biological target: T2, A disintegrin and metalloproteinase with thrombospondin motifs 4 (Homo sapiens, UniProt O75173); assay: Inhibition of ADAMTS-4 (unknown origin)
T2 sequence (O75173 whole entry): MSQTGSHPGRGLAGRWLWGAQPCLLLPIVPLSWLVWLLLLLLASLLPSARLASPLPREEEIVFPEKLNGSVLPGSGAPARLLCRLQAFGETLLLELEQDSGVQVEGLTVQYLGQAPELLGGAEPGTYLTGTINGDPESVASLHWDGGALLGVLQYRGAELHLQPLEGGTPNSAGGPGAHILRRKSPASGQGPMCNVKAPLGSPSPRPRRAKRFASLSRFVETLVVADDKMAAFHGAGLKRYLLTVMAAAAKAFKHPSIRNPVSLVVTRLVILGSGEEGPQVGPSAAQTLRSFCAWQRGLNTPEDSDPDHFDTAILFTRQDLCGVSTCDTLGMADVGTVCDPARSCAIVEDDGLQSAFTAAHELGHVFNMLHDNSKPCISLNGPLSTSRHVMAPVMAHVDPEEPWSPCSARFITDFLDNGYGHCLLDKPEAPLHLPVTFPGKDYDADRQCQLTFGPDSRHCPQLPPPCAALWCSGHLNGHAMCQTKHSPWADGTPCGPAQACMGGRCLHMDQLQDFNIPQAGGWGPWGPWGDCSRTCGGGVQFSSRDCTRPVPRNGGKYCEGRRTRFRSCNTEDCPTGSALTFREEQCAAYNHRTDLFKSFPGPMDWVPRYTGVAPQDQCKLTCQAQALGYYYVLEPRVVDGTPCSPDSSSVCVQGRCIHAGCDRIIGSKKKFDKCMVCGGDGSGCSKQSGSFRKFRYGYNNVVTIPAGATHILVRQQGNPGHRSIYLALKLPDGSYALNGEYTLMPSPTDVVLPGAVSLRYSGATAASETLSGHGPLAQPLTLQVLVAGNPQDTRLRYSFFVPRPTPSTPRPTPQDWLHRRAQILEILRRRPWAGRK

[3] = biological target: T3, A disintegrin and metalloproteinase with thrombospondin motifs 5 (Homo sapiens, UniProt Q9UNA0); assay: Inhibition of ADAMTS-5 (unknown origin)
T3 sequence (Q9UNA0 whole entry): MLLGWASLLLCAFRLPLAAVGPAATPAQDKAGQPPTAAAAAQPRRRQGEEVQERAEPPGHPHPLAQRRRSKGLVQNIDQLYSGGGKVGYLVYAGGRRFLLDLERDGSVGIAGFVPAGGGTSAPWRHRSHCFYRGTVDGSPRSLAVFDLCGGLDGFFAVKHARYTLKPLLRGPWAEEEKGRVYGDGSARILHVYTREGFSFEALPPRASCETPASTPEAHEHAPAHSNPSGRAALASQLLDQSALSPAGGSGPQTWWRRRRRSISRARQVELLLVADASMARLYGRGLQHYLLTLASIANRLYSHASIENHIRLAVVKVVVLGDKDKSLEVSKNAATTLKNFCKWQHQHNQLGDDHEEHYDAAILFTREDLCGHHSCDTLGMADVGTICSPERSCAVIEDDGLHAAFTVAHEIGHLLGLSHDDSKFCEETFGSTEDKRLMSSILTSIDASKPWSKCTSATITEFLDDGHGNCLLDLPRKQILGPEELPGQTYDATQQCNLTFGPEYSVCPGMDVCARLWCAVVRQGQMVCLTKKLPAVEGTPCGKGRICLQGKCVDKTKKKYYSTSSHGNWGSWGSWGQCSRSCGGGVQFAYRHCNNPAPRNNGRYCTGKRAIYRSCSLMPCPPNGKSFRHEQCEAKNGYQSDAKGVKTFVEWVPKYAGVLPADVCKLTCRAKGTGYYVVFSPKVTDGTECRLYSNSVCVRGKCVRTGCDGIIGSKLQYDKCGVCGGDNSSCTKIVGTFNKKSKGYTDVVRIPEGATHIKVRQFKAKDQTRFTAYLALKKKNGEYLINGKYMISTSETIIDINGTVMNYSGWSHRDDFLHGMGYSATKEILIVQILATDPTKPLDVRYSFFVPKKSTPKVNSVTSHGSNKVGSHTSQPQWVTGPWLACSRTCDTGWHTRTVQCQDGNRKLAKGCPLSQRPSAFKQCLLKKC

[4] = biological target: T4, A disintegrin and metalloproteinase with thrombospondin motifs 4 (Bos taurus) (UniProt Q9TT93); conditions: 30 uM
T4 sequence (whole entry): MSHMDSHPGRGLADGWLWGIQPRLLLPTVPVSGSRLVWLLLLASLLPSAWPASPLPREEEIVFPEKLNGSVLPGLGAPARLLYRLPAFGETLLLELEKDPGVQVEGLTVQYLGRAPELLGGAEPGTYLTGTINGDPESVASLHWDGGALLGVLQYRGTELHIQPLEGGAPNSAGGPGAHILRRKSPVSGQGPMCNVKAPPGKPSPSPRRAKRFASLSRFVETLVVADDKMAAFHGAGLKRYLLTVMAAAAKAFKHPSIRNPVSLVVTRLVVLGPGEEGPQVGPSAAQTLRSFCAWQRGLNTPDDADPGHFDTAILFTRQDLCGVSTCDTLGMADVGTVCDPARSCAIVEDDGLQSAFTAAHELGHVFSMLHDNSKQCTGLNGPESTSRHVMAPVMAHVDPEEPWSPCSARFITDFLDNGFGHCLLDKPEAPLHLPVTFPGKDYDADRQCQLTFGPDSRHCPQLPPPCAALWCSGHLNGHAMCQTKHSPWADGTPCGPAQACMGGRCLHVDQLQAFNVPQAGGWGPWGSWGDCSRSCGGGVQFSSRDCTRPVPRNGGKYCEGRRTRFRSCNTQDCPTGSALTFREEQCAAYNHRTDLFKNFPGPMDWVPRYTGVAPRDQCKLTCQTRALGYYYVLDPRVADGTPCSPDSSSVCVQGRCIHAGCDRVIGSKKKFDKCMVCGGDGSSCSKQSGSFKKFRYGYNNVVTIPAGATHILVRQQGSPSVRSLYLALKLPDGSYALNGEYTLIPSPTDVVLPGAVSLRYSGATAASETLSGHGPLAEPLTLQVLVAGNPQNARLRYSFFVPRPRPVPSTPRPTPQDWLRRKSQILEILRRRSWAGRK
Description: Ex vivo inhibition of ADAMTS-4-mediated aggrecan degradation in IL-1-stimulated bovine cartilage explant at 30 uM

inhibition [1]: 91% | IC50 [2]: 1000 nM | IC50 [3]: 420 nM | inhibition [4]: 91%
SMILES: O=C(NO)C1(S(=O)(=O)c2ccc(Oc3ccc(Cl)cc3)cc2)CCN(Cc2ccccc2)CC1
